Experimental data published in patent publication US20230103791A1 (GLAXOSMITHKLINE INTELLECTUAL PROPERTY DEVELOPMENT LIMITED, priority 2019, published 2023).
Read-outs that look alike come from different tables or passages of the source.

Target: T1, human Nav1.8 (Homo sapiens, UniProt Q9Y5Y9)
T1 construct: expressed in transfected cells; host or cells: HEK293 (HEK293-Nav1.8)
Assay: Nav1.8 sodium channels assay, QPatch 48 HTX electrophysiology in HEK293-Nav1.8 cells
Format: cell-based
Method in brief: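 IC50 came from 6-8 point curves of P2 current amplitude, normalized to baseline and a positive reference, and corrected for run-down using vehicle-only wells. Automated patch clamp used HEK293-Nav1.8 (with Navβ1 and TREK1) at pH 7.4 outside and CsF-based solution inside. An 8 s inactivating step at −46 mV preceded the 0 mV test pulse, repeated at 0.07 Hz.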

[1] = at least one set of experimental runs, read-out: average pIC50 value against Nav1.8 (converted)
[2] = Table 1, HEK293-Nav1.8, QPatch 48 HTX, half inactivation state voltage protocol (V1/2), single run or average of two or more runs, read-out: Nav1.8 pIC50 (converted)

T1 sequence (Q9Y5Y9 whole entry): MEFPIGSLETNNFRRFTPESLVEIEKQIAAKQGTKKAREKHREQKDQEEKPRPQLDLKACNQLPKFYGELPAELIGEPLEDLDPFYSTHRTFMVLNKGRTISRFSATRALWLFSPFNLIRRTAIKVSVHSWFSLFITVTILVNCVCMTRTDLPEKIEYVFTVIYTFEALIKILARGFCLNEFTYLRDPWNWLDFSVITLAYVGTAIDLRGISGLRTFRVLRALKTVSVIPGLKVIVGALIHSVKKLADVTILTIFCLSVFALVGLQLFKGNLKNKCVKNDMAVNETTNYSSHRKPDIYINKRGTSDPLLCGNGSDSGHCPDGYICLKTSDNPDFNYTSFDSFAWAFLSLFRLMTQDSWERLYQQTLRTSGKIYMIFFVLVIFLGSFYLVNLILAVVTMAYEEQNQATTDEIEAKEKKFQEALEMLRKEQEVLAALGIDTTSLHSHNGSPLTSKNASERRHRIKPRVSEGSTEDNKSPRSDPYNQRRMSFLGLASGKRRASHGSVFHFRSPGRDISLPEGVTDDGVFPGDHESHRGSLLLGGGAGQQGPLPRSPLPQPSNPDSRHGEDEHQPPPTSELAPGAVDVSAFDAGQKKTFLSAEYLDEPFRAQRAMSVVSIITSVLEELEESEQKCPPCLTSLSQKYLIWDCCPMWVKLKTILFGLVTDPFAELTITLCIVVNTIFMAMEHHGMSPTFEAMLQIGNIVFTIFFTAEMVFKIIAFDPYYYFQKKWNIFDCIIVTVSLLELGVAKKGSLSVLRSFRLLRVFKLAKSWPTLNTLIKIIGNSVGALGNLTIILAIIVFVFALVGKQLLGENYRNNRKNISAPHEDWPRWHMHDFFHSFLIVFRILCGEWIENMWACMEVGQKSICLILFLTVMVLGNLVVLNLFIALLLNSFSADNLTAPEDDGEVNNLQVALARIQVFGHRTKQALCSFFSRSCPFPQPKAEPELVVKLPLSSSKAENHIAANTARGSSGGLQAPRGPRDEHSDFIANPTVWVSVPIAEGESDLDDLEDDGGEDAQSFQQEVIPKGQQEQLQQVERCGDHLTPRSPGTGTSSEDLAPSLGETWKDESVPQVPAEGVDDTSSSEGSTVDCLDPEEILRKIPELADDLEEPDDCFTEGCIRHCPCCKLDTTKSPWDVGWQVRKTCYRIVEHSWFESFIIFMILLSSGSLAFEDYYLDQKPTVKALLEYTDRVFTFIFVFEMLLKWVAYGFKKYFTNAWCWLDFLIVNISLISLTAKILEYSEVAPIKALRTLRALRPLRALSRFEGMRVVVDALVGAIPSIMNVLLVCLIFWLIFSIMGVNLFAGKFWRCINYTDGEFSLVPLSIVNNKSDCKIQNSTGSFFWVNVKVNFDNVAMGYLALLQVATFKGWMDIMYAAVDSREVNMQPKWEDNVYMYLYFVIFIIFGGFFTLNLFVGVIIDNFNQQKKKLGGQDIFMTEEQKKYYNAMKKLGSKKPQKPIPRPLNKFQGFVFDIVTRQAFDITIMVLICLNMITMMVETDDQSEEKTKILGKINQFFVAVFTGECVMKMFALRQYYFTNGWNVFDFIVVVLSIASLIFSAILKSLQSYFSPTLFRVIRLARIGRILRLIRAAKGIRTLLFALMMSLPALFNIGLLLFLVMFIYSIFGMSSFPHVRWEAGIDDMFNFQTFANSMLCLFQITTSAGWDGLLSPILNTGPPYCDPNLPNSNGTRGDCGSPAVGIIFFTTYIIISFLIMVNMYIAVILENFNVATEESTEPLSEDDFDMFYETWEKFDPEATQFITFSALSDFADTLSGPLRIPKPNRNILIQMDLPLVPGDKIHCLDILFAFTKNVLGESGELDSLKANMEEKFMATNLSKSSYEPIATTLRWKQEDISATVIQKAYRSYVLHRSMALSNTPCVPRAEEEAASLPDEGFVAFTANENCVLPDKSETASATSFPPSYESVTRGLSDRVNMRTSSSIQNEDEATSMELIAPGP
T1 sequence (Q07699 19-218 partner): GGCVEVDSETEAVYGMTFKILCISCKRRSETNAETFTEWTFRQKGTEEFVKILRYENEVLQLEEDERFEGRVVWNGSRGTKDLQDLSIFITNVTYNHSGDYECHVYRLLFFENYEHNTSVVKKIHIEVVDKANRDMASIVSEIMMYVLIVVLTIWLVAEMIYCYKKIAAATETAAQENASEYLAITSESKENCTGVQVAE

Row | SMILES | IC50 [1] | IC50 [2]
1 | Cc1cc(OC(F)(F)F)ccc1N1CN(c2ccc(=O)[nH]c2C)C(=O)c2c1ccc(Cl)c2F [Example 74, 6-chloro-5-fluoro-1-(2-methyl-4-(trifluorometh-oxy)phenyl)-3-(2-methyl-6-oxo-1,6-dihydropyridin-3-yl)-2,3-dihydroquinazolin-4(1H)-one] | ≤ 100 nM | –
2 | Cc1ccccc1N1CN(c2ccc(=O)[nH]c2C)C(=O)c2ccccc21 [drawing 295, 3-(2-methyl-6-oxo-1,6-dihydropyridin-3-yl)-1-(o-tolyl)-2,3-dihydroquinazolin-4(1H)-one] | – | 631 nM
3 | Cc1cc(O)ccc1N1CN(c2ccc(=O)[nH]c2C)C(=O)c2cc(C(F)(F)F)ccc21 [Example 127, 1-(4-hydroxy-2-methylphenyl)-3-(2-methyl-6-oxo-1,6-dihydropyridin-3-yl)-6-(trifluoromethyl)-2,3-dihydroquinazolin-4(1H)-one] | 126 to 631 nM | –
4 | Cc1cc(F)ccc1N1CN(c2ccc(=O)[nH]c2C)C(=O)c2cc(F)c(Cl)nc21 [Example 227, 7-chloro-6-fluoro-1-(4-fluoro-2-methylphenyl)-3-(2-methyl-6-oxo-1,6-dihydropyridin-3-yl)-2,3-dihydropyrido[2,3-d]pyrimidin-4(1H)-one] | ≤ 100 nM | –
5 | Cc1[nH]c(=O)ccc1N1CN(c2ccc(F)cc2C(C)C)c2ccc(C(F)(F)F)cc2C1=O [Example 178, 1-(4-fluoro-2-isopropylphenyl)-3-(2-methyl-6-oxo-1,6-dihydropyridin-3-yl)-6-(trifluoromethyl)-2,3-dihydroquinazolin-4(1H)-one] | ≤ 100 nM | –
6 | Cc1cc(F)ccc1N1CN(c2ccc(=O)[nH]c2C)C(=O)c2cc(C(F)(F)F)ccc21 [drawing 286, 1-(4-fluoro-2-methylphenyl)-3-(2-methyl-6-oxo-1,6-dihydropyridin-3-yl)-6-(trifluoromethyl)-2,3-dihydroquinazolin-4(1H)-one] | – | 15.8 nM
7 | Cc1cc(F)ccc1N1CN(c2ccc(=O)[nH]c2NCCO)C(=O)c2ccc(C(F)(F)F)cc21 [Example 199, 1-(4-fluoro-2-methylphenyl)-3-(2-((2-hydroxy-ethyl)amino)-6-oxo-1,6-dihydropyridin-3-yl)-7-(trifluoromethyl)-2,3-dihydroquinazolin-4(1H)-one] | 126 to 631 nM | –
8 | Cc1cc(F)ccc1N1CN(c2ccc(=O)[nH]c2C)C(=O)c2cc(C(F)(F)F)cnc21 [Example 299, 1-(4-fluoro-2-methylphenyl)-3-(2-methyl-6-oxo-1,6-dihydropyridin-3-yl)-6-(trifluoromethyl)-2,3-dihydropyrido[2,3-d]pyrimidin-4(1H)-one] | 126 to 631 nM | –
9 | Cc1cc(F)ccc1N1CN(c2c[nH]c(=O)c(C)c2)C(=O)c2ccc(C(F)(F)F)cc21 [drawing 271, 1-(4-fluoro-2-methylphenyl)-3-(5-methyl-6-oxo-1,6-dihydropyridin-3-yl)-7-(trifluoromethyl)-2,3-dihydroquinazolin-4(1H)-one] | – | 631 nM
10 | COc1cc(F)ccc1N1CN(c2ccc(=O)[nH]c2)C(=O)c2c1cccc2C(F)(F)F [Example 223, 1-(4-fluoro-2-methoxyphenyl)-3-(6-oxo-1,6-dihydropyridin-3-yl)-5-(trifluoromethyl)-2,3-dihydroquinazolin-4(1H)-one] | 794 to 7940 nM | –
11 | Cc1cc(N2CN(c3ccc(F)cc3C)c3cc(C(F)(F)F)ccc3C2=O)cc(=O)[nH]1 [Example 53, 1-(4-fluoro-2-methylphenyl)-3-(6-methyl-2-oxo-1,2-dihydropyridin-4-yl)-7-(trifluoromethyl)-2,3-dihydroquinazolin-4(1H)-one] | 794 to 7940 nM | –
12 | CCOc1ccc(N2CN(c3ccc(=O)[nH]c3C)C(=O)c3ccc(C(F)(F)F)cc32)cc1 [drawing 302, 1-(4-ethoxyphenyl)-3-(2-methyl-6-oxo-1,6-dihydropyridin-3-yl)-7-(trifluoromethyl)-2,3-dihydroquinazolin-4(1H)-one] | – | 398 nM
13 | Cc1[nH]c(=O)ccc1N1CN(c2ccc(F)cc2)c2cc(C(F)(F)F)ccc2C1=O [drawing 285, 1-(4-fluorophenyl)-3-(2-methyl-6-oxo-1,6-dihydropyridin-3-yl)-7-(trifluoromethyl)-2,3-dihydroquinazolin-4(1H)-one] | – | 126 nM
14 | CC(=O)Nc1[nH]c(=O)ccc1N1CN(c2ccc(F)cc2C)c2ccc(C(F)(F)F)cc2C1=O [Example 163, N-(3-(1-(4-fluoro-2-methylphenyl)-4-oxo-6-(trifluoromethyl)-1,4-dihydroquinazolin-3(2H)-yl)-6-oxo-1,6-dihydropyridin-2-yl)acetamide] | 794 to 7940 nM | –
15 | Cc1cc(F)ccc1N1CN(c2ccnn2C)C(=O)c2cc(C(F)(F)F)ccc21 [Example 4, 1-(4-fluoro-2-methylphenyl)-3-(1-methyl-1H-pyrazol-5-yl)-6-(trifluoromethyl)-2,3-dihydroquinazolin-4(1H)-one] | 126 to 631 nM | –
16 | Cc1cc(=O)[nH]c(C)c1N1CN(c2ccc(F)cc2C(C)C)c2cc(C(F)(F)F)ccc2C1=O (single isomer, unassigned) [Example 289, 3-(2,4-Dimethyl-6-oxo-1,6-dihydropyridin-3-yl)-1-(4-fluoro-2-isopropylphenyl)-7-(trifluoromethyl)-2,3-dihydroquinazolin-4(1H)-one] | 794 to 7940 nM | –
17 | Cc1cnccc1N1CN(c2ccc(OC(F)(F)F)cc2C)c2ccc(C(F)(F)F)cc2C1=O [Example 21, 1-(2-methyl-4-(trifluoromethoxy)phenyl)-3-(3-methylpyridin-4-yl)-6-(trifluoromethyl)-2,3-dihydroquinazolin-4(1H)-one] | 126 to 631 nM | –
18 | Cc1cc(F)ccc1N1CN(C2CCS(=O)(=O)CC2)C(=O)c2ccc(C(F)(F)F)cc21 [Example 17, 3-(1,1-dioxidotetrahydro-2H-thiopyran-4-yl)-1-(4-fluoro-2-methylphenyl)-7-(trifluoromethyl)-2,3-dihydroquinazolin-4(1H)-one] | 794 to 7940 nM | –
19 | Cc1[nH]c(=O)ccc1N1CN(c2ccc(F)cc2C(C)C)c2cc(C(F)(F)F)ccc2C1=O [drawing 290, 1-(4-fluoro-2-isopropylphenyl)-3-(2-methyl-6-oxo-1,6-dihydropyridin-3-yl)-7-(trifluoromethyl)-2,3-dihydroquinazolin-4(1H)-one] | – | 6.31 nM
20 | Cc1cc(F)ccc1N1CN(c2ccc(=O)[nH]c2C)C(=O)c2ccccc21 [Example 52, 1-(4-fluoro-2-methylphenyl)-3-(2-methyl-6-oxo-1,6-dihydropyridin-3-yl)-2,3-dihydroquinazolin-4(1H)-one] | ≤ 100 nM | –
21 | Cc1cc(=O)[nH]cc1N1CN(c2ccc(F)cc2C)c2cc(C(F)(F)F)ccc2C1=O [drawing 273, 1-(4-fluoro-2-methylphenyl)-3-(4-methyl-6-oxo-1,6-dihydropyridin-3-yl)-7-(trifluoromethyl)-2,3-dihydroquinazolin-4(1H)-one] | – | 398 nM
22 | COc1ccc(N2CN(c3ccc(F)cc3Br)c3ccc(C(F)(F)F)cc3C2=O)c(C)n1 [Example 9, 1-(2-bromo-4-fluorophenyl)-3-(6-methoxy-2-methylpyridin-3-yl)-6-(trifluoromethyl)-2,3-dihydroquinazolin-4(1H)-one] | 794 to 7940 nM | –
23 | Cc1[nH]c(=O)ccc1N1CN([C@H]2CCOC[C@@H]2C)c2cc(C(F)(F)F)ccc2C1=O [Example 283, 3-(2-Methyl-6-oxo-1,6-dihydropyridin-3-yl)-1-((3R,4S)-3-methyltetrahydro-2H-pyran-4-yl)-7-(trifluoromethyl)-2,3-dihydroquinazolin-4(1H)-one] | 126 to 631 nM | –
24 | Cc1cc(F)ccc1N1CN(c2ccc(=O)[nH]c2C)C(=O)c2c(C(F)F)cccc21 [Example 130, 5-(difluoromethyl)-1-(4-fluoro-2-methylphenyl)-3-(2-methyl-6-oxo-1,6-dihydropyridin-3-yl)-2,3-dihydroquinazolin-4(1H)-one] | 126 to 631 nM | –
25 | Cc1cc(F)ccc1N1CN([C@H]2CCC(=O)N[C@H]2C)C(=O)c2ccc(C(F)(F)F)cc21 [Example 287, 1-(4-Fluoro-2-methylphenyl)-3-((2S,3S)-2-methyl-6-oxopiperidin-3-yl)-7-(trifluoromethyl)-2,3-dihydroquinazolin-4(1H)-one] | 794 to 7940 nM | –
26 | Cc1cc(F)ccc1N1CN(c2ccc(=O)[nH]c2C)C(=O)c2ccc(S(C)(=O)=O)cc21 [Example 80, 1-(4-fluoro-2-methylphenyl)-3-(2-methyl-6-oxo-1,6-dihydropyridin, 3-yl)-7-(methylsulfonyl)-2,3-dihydroquinazolin-4(1H)-one] | 794 to 7940 nM | –
27 | Cc1cc(C#N)ccc1N1CN(c2ccc(=O)[nH]c2C)C(=O)c2ccc(C(F)(F)F)cc21 [drawing 287, 3-methyl-4-(3-(2-methyl-6-oxo-1,6-dihydropyridin-3-yl)-4-oxo-7-(trifluoromethyl)-3,4-dihydroquinazolin-1(2H)-yl)benzonitrile] | – | 63.1 nM
28 | Cc1cc(F)ccc1N1CN(c2ccc(=O)[nH]c2C)C(=O)c2ccc(Br)cc21 [drawing 298, 7-bromo-1-(4-fluoro-2-methylphenyl)-3-(2-methyl-6-oxo-1,6-dihydropyridin-3-yl)-2,3-dihydroquinazolin-4(1H)-one] | – | 3.16 nM
29 | Cc1[nH]c(=O)ccc1N1CN(c2ccc(F)cc2C(C)C)c2cc(C(F)(F)F)ccc2C1=O [Example 47, 1-(4-fluoro-2-isopropylphenyl)-3-(2-methyl-6-oxo-1,6-dihydropyridin-3-yl)-7-(trifluoromethyl)-2,3-dihydroquinazolin-4(1H)-one] | ≤ 100 nM | –
30 | Cc1cc(OC(F)(F)F)ccc1N1CN(c2ccc(=O)[nH]c2C)C(=O)c2cc(C(F)(F)F)cnc21 [drawing 274, 1-(2-methyl-4-(trifluoromethoxy)phenyl)-3-(2-methyl-6-oxo-1,6-dihydropyridin-3-yl)-6-(trifluoromethyl)-2,3-dihydropyrido[2,3-d]pyrimidin-4(1H)-one] | – | 25.1 nM
